Test results: US9957271B2, “Substituted bicyclic aza-heterocycles and analogues as sirtuin modulators” (GlaxoSmithKline, LLC, priority 2012, dated 2018)

Target: T1, SIRT1 (Homo sapiens, UniProt Q96EB6)
T1 sequence (Q96EB6 1-747): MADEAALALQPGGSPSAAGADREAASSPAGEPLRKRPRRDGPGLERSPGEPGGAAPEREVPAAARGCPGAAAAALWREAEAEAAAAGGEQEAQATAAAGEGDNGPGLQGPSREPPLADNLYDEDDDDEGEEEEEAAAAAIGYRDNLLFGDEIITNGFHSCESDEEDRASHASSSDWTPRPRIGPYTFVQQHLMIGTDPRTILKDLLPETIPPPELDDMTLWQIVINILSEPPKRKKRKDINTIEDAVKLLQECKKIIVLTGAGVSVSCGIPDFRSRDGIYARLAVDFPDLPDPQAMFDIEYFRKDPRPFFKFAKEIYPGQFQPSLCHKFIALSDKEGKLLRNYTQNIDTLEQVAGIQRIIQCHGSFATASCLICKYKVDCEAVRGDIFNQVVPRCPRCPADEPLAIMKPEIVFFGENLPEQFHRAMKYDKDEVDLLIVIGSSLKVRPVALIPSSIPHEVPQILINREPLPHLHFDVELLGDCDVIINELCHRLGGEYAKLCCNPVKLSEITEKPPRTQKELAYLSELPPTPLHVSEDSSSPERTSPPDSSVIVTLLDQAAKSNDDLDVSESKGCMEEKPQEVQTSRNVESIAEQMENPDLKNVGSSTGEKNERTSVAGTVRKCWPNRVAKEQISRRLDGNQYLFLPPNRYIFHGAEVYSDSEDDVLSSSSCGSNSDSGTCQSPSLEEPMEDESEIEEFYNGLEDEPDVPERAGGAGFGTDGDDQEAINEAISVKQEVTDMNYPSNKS
Experiment: TAMRA based mass spectrometry assay of SIRT1 activity
Assay type: biochemical
Details: TAMRA assay; for TAMRA EC1.5 (μM): concentration giving 150% activation of SIRT1; for Emax: percent maximum fold activation, read-out: TAMRA % Fold Act
How it was run: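 Recombinant N-terminal His-tagged human SIRT1 (10 nM, E. coli) incubated 25 min at 25 °C with 0.5 μM 5TMR-labelled p53-derived acetyl-peptide and 120 μM βNAD+ in Tris-acetate pH 8 buffer with DTT and 0.05% BSA, compound at varying concentrations. Stopped with formic acid; deacetylated peptide or OAADPR measured by mass spectrometry relative to DMSO controls.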

SMILES | TAMRA EC1.5 (μM) | Emax
Cc1ccc(NC(=O)c2c(C)nc3ccc(-c4ccccc4C(F)(F)F)nn23)nn1 [Compound 664] | A (EC1.5<1 μM) | ≥ 350%
CCOc1ccc(NC(=O)c2c(C)nc3ccc(-c4ccccc4C(F)(F)F)nn23)nn1 [Compound 666] | A (EC1.5<1 μM) | ≥ 350%
Cc1nc2ccc(-c3ccccc3C(F)(F)F)nn2c1C(=O)Nc1cnncn1 [Compound 667] | A (EC1.5<1 μM) | ≥ 350%
Cc1nc2ccc(-c3ccccc3C(F)(F)F)nn2c1C(=O)Nc1nccc(N2CCCC2)n1 [Compound 669] | A (EC1.5<1 μM) | ≥ 350%
COc1cncnc1NC(=O)c1c(C)nc2ccc(-c3ccccc3C(F)(F)F)nn12 [Compound 670] | A (EC1.5<1 μM) | ≥ 350%
Cc1nc2ccc(-c3ccccc3C(F)(F)F)nn2c1C(=O)Nc1ccc(Cl)cn1 [Compound 673] | A (EC1.5<1 μM) | ≥ 350%
Cc1nc2ccc(-c3ccccc3C(F)(F)F)nn2c1C(=O)Nc1ccnn1C [Compound 675] | C (EC1.5>25 μM) | < 350%
CCOc1n[nH]c(NC(=O)c2c(C)nc3ccc(-c4ccccc4C(F)(F)F)nn23)n1 [Compound 676] | A (EC1.5<1 μM) | ≥ 350%
Cc1ccc(NC(=O)c2c(C)nn3ccc(-c4ccccc4C(F)(F)F)nc23)nc1 [Compound 684] | A (EC1.5<1 μM) | ≥ 350%
Cc1cc(C)nc(NC(=O)c2c(C)nn3ccc(-c4ccccc4C(F)(F)F)nc23)c1 [Compound 685] | A (EC1.5<1 μM) | ≥ 350%
Cc1cc(C)c(NC(=O)c2cnn3ccc(-c4ccccc4C(F)(F)F)nc23)cn1 [Compound 687] | B (EC1.5 1-25 μM) | < 350%
Cc1cnc(NC(=O)c2cnn3ccc(-c4ccccc4OC(F)(F)F)nc23)c(C)n1 [Compound 689] | C (EC1.5>25 μM) | < 350%
O=C(Nc1ncc(F)cc1F)c1cnn2ccc(-c3ccccc3OC(F)(F)F)nc12 [Compound 690] | C (EC1.5>25 μM) | < 350%
Cc1cc(-c2ccccc2C(F)(F)F)nn2c(C(=O)Nc3ccnc(N4CC5(CCS5(=O)=O)C4)n3)cnc12 [Compound 691] | A (EC1.5<1 μM) | ≥ 350%
COc1ccc(NC(=O)c2c(C)nn3ccc(-c4ccccc4C(F)(F)F)nc23)nn1 [Compound 696] | A (EC1.5<1 μM) | ≥ 350%
CCOc1ccc(NC(=O)c2c(C)nn3ccc(-c4ccccc4C(F)(F)F)nc23)nn1 [Compound 697] | A (EC1.5<1 μM) | ≥ 350%
Cc1ncccc1NC(=O)c1c(C)nn2ccc(-c3ccccc3C(F)(F)F)nc12 [Compound 699] | A (EC1.5<1 μM) | < 350%
Cc1csc(NC(=O)c2cnn3ccc(-c4ccccc4OC(F)(F)F)nc23)n1 [Compound 702] | A (EC1.5<1 μM) | ≥ 350%
COc1cc(NC(=O)c2cnn3ccc(-c4ccccc4OC(F)(F)F)nc23)ncn1 [Compound 703] | A (EC1.5<1 μM) | ≥ 350%
O=C(Nc1cnc2ccc(-c3ccccc3C(F)(F)F)nn12)c1cc(O)ncn1 [Compound 705] | A (EC1.5<1 μM) | ≥ 350%
Cc1cc(C)c(NC(=O)c2c(C)nn3ccc(-c4ccccc4C(F)(F)F)nc23)cn1 [Compound 708] | B (EC1.5 1-25 μM) | ≥ 350%
Cc1nn2ccc(-c3ccccc3C(F)(F)F)nc2c1C(=O)Nc1nccs1 [Compound 709] | A (EC1.5<1 μM) | ≥ 350%
O=C(Nc1cc(O)ncn1)c1cnn2ccc(-c3ccccc3OC(F)(F)F)nc12 [Compound 711] | A (EC1.5<1 μM) | ≥ 350%
Cc1ccnc(C(=O)Nc2cnn3ccc(-c4ccccc4OC(F)(F)F)nc23)c1 [Compound 714] | A (EC1.5<1 μM) | ≥ 350%
